# Assay results reported in ChEMBL document CHEMBL1152359, “Synthesis and structure-activity relationships of gamma-carboline derivatives as potent and selective cysLT(1) antagonists” (Bioorg Med Chem Lett, 2009).
# Assay: in vivo
# Settings: rat
row,Compound,bioavailability [%]
1,CC(C)(O)c1ccccc1CC[C@@H](SCC1(CC(=O)O)CC1)c1cccc(/C=C/c2ccc3ccc(Cl)cc3n2)c1 [MONTELUKAST],63
2,COc1cc(C(=O)NS(=O)(=O)c2ccccc2C)ccc1Cc1cn(C)c2ccc(NC(=O)OC3CCCC3)cc12 [ZAFIRLUKAST],25
